We go through four compounds from US4652584A, “Acetylenic phenoxypropanol derivatives and pharmaceutical compositions for the treatment of hypertension” (McNeilab, Inc., priority 1984, dated 1987).

Like-named read-outs stand apart in the source and are kept apart here.

In assay [1] the test system is spontaneously hypertensive rats. In words: Spontaneously Hypertensive Rat (SHR) test, mean arterial pressure via aortic cannula. Format: in vivo. The following applies: 30 mg per kg of body weight, p.o. From the text: The activity of compounds of formula (I) for the treatment of hypertension may be determined using the Spontaneously Hypertensive Rat (SHR) test as described below.
In this test, the arterial pressure of adult spontaneously hypertensive rats (Charles River) is monitored directly via an aortic cannula. The SH rats are anesthetized with an inhalation anesthetic (ether). The left carotid artery is isolated and cannulated. The tip of the cannula is advanced to the aorta and the cannula is exteriorized behind the neck at the level of the scapula. Animals are placed in individual cages and allowed to recover from the anesthetic and are kept unrestrained. The arterial cannula is connected to the pressure transducer which is attached to the recorder. The test compounds are administered to at least 3 rats at doses selected in the range of 0.1 to 100 mg/kg of body weight by intraperitoneal (i.p.) or oral (p.o.) routes of administration. The arterial pressure and heart rate are monitored for a minimum of 24 hours. A test compound is considered to be active as an antihypertensive agent if the mean arterial pressure (MAP) indicates a fall of >15 mm of Hg. Each animal serves as its own control.

Assay [2] deals with isolated rabbit thoracic aorta (potential-dependent calcium channel). Briefly: Calcium Entry Blockade test: 45Ca influx in vascular rings. The note with it: for calcium channel blocking / calcium entry blockade activity: overall result in words. From the text:
(§1) A fourth test for determining the ability of compounds of the invention to act as anti-hypertensive agents is the Calcium Entry Blockade test using vascular smooth muscle. Male New Zealand White Rabbits (H.A.R.E.) (body weight=1.8-2.4 kg) are sacrificed by cervical fracture and the thoracic aorta is removed under standard HEPES buffer. The aorta is rinsed in several changes of standard HEPES and cleared of extraneous tissue. Scissors are used to segment the aorta into 3 mm rings (approximately 12 rings/aorta). For studies of tension, individual rings are equilibrated for one hour in standard HEPES buffer under isometric tension (1 g) between two parallel horizontal wires. For calcium influx studies, the following procedures are executed. After completion of the one-hour equilibration period, the test is begun. To baths containing vascular rings to be tested for the effects of an experimental agent on calcium influx in the basal state (absence of an agonist), the agent dissolved in 20 μl of vehicle (PEG 300 or H2 O) is added and a parallel vehicle bath is started receiving the vehicle alone. To baths containing vascular rings to be tested for the effects of an experimental agent on calcium influx during agonist stimulation, the experimental agent is added in a fashion identical to that described for the basal test and parallel vehicle baths are also initiated. All baths are allowed to equilibrate for 30 minutes. Subsequently, to basal test baths, 20 μl of H2 O is added; to baths receiving KCl, 400 μl of H2 O containing 60 mM KCl is added; to baths receiving NE, 20 μl of H2 O containing 10 μM NE is added. All baths are allowed to equilibrate for an additional 281/2 minutes. At this time, all rings in each bath are removed from their respective bath, quickly but gently blotted and transferred to a bath containing an identical solution but also containing ^45 Ca(20 μl, 2.5 μCi/ml; New England Nuclear, Boston, MA). Rings are allowed exposure to the radiolabelled solution for exactly three minutes. Subsequently, the rings are removed, blotted to remove excess fluid, and placed in predesignated test tubes containing ice cold wash solution where they are allowed to equilibrate for 45 minutes in the presence of vigorous bubbling with 100% O2. Subsequently, individual rings are removed, blotted, weighed (Mettler Balance model AE 163), and placed in a scintillation vial containing 2 ml of 7.5 mM EDTA solution (pH=10.0). Vials are held overnight in darkness. […] Subsequently, 13 ml of Beckman HP scintillation fluid is added to each vial with shaking, vials are cleaned, and counted using a Beckman LS 6800 liquid scintillation counter. Blanks containing solutions alone are simultaneously counted to provide background information.
(§2) For tension studies, the following procedures are executed. After completion of the one-hour equilibration period, the test is begun. At this time, all tissue tensions are adjusted mechanically back to the 1 gram baseline. Subsequently, all tissue baths receive either KCl (60 mM) plus phentolamine (1 μM) in 400 μl H2 O or NE (10 μM in 20 μl PEG 300). All rings are allowed to develop tension for exactly 30 minutes. Subsequently, the bathing solution is removed and replaced immediately with normal HEPES buffer without experimental agents and the tension response is allowed to "wash out". Two subsequent washes are introduced at 10 minute intervals before the rings can achieve the prestimulation baseline tone. Subsequently, the experimental drug or vehicle is added to each bath and the rings are allowed to equilibrate for exactly 30 minutes. Finally, the agonist challenge is repeated as described previously in the presence of the experimental agent. […]

The test system of assay [3] is isolated rabbit thoracic aorta. Briefly: Calcium Entry Blockade test: tension (tone) of vascular rings. The following applies: for inhibition at 10 µM: Oryctolagus cuniculus, 10 μM compound.
From the text: as §1, §2

For the next assay, the system named is Beta Adrenergic. Briefly: Evaluation of Potential Beta Adrenergic Blocking Activity. On the set-up: species or system guinea pig. The following applies: overall result in words.
The subject of assay [4] is Isolated Heart (coronary arteries). In words: Langendorff's Isolated Heart model (coronary vasodilation). On the procedure:
In addition to their utility in the treatment of hypertension, the compounds of formula (I) are useful in the treatment of the symptoms of angina pectoris by virtue of their ability to dilate coronary arteries. Often, peripheral arteries are also dilated by compounds which dilate coronary arteries and thus, this test is also useful for predicting activity as an antihypertensive. Compounds of the invention were tested in this regard in the "Langendorff's Isolated Heart" model as generally described in "Pharmaceutical Experiments on Isolated Preparations", Staff of the Department of Pharmacology, University of Edinbourgh, 2nd Ed., Churchill, Livingston, N.Y. (1970) pages 112-119. In this test, the compound of the invention of formula (I) produced in Example 6b. required a 0.04 μM concentration to elicit a 30% increase in flow.

The target in the next assay is T1, Beta-1 (Cavia porcellus, UniProt H0W3H1).
T1 construct: The atria were mounted in 50 ml baths in Krebs-bicarbonate buffer; from tissue; host or cells: guinea pig atria (isolated atrial pairs, female animals)
T1 sequence (H0W3H1 1-470): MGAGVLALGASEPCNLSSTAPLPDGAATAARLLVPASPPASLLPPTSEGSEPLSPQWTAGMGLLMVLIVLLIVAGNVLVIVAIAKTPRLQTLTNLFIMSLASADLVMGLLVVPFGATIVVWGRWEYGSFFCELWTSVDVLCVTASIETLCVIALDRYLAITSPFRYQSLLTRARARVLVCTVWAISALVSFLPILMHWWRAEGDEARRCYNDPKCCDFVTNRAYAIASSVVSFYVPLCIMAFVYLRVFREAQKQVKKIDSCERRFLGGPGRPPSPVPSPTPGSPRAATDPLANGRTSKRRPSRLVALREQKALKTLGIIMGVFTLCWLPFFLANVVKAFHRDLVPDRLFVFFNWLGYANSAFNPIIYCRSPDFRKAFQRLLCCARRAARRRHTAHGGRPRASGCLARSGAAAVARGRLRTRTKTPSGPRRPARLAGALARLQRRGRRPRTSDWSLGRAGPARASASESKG
The following applies: guinea pig atrial pairs, isoproterenol tachycardia, Schild plot; read-out: pA2 (converted).

The mark [5] stands for this setting: KCl stimulated, 1.0 and 10.0 μM.
Where [6] appears, read: isolated Langendorff test, 0.01 to 3.0 μM.

On to `CN(C)c1ccc(C#Cc2ccccc2OCC(O)CNC(C)(C)C)cc1.O=C(O)/C=C/C(=O)O` (stereo not shown) [Example 16, 1-[(1,1-Dimethylethyl)amino]-3-[2-[(4-dimethylaminophenyl)ethynyl]phenoxy]-2-propanol (E)-2-Butenedioate (1:1)], for which the “maximum change in mean arterial blood pressure (fall)” value in assay [1] is recorded as 69 mm of Hg. For the same compound, the “effect on KCl-dependent calcium flux” value in assay [2] (KCl-dependent, 10 μM compound) is on record as “no effect”. The “calcium channel blocking / calcium entry blockade activity” value in assay [2] (isolated rabbit thoracic aorta) was “did not exhibit typical calcium channel blocking activity”. Besides, in assay [2], the “effect on norepinephrine-induced calcium influx” value is “reduced norepinephrine-induced calcium flux”. In assay [3] (KCl-dependent, read-out: reduction of KCl-dependent contractile activity), the inhibition at 10 µM worked out at 50%. Besides, in assay [3], the “effect on norepinephrine-induced tone / tension” value is listed as “without changing tension”.

Regarding `CC(C)(C)NCC(O)COc1ccccc1C#Cc1ccccc1.Cl` (stereo not shown) [Example 1d, 1-[(1,1-Dimethylethyl)amino]-3-[2-(phenylethynyl)phenoxy]-2-propanol Hydrochloride], the “inhibition of KCl stimulated calcium influx” value in assay [2] (KCl stimulated, 10 μM compound) is on record as 100%. Moreover, in assay [2] (setting [5]), the “inhibition of KCl stimulated effects on calcium influx” value was “dose dependent inhibition”. In assay [2] (isolated rabbit thoracic aorta), the “blockade of the potential-dependent calcium channel” value is “significant blockade” and the “calcium channel blocking / calcium entry blockade activity” value is reported as “calcium entry blockade activities”. The “effect on norepinephrine-induced calcium influx” value in assay [2] is on record as “no effect”. The “inhibition of KCl stimulated effects on tone” value in assay [3] (setting [5]) was “dose dependent inhibition”. The inhibition at 10 µM in assay [3] (KCl stimulated, read-out: inhibition of KCl stimulated tone) was found to be 100%. In assay [3] (isolated rabbit thoracic aorta), the “blockade of related vascular tone” value is “significant blockade”. The “effect on norepinephrine-induced tone / tension” value in assay [3] was “no effect”. In addition, in the assay on Beta Adrenergic, the β-blocking activity result is “β-blocking”.

In the case of `COc1ccc(C#Cc2ccccc2)c(OCC(O)CNCCc2ccc(OC)c(OC)c2)c1` (stereo not shown) [Example 6b, 1-[[2-(3,4-Dimethyoxyphenyl)ethyl]amino]-3-[5-methoxy-2-(phenylethynyl)phenoxy]-2-propanol (E)-2-Butenedioate (2:1)], the EC30 in assay [4] (Langendorff isolated heart, 30% increase in flow, read-out: concentration required to elicit a 30% increase in flow) is 40 nM. In addition, the activation at 0.1 µM in assay [4] (at 0.1 μM) was determined as 39%. Besides, in assay [4] (setting [6]), the coronary vasodilator activity entry was “active coronary vasodilator”, the “effect on contractile force” value was “no effect” and the “effect on spontaneous rate” value was “no effect”.

As for `CC(=O)Nc1cccc(C#Cc2ccccc2OCC(O)CNC(C)(C)C)c1` (stereo not shown) [Example 18, N-[3-[[2-[3-[(1,1-Dimethylethyl)amino]-2-hydroxypropoxy]phenyl]ethynyl]phenyl]acetamide 4-methylbenzene sulfonate], the Kb at Beta-1 was 7.08 nM.
